# Measurements from patent publication US11358989B2, “Apratyramide therapeutic agents and methods of treatment” (University of Florida Research Foundation, Incorporated, priority 2017, dated 2022).
# Entries after “also recorded” stand apart in the source; their conditions may differ.
# How the values were obtained:
# VEGF-A [1] = assay: VEGF-A transcript level in HCT116 cells (RT-qPCR); assay type: cell-based, human; settings: 16 h
# Procedure: (§1) Human keratinocyte HaCaT cells and human colon cancer HCT116 cells were cultured in Dulbecco's modified Eagle's medium (DMEM) supplemented with 10% fetal bovine serum at 37° C. humidified air and 5% CO2. Human normal colon (CCD-18Co) cells (ATCC) were cultured in Eagle's minimal essential medium (EMEM) supplemented with 10% fetal bovine serum at 37° C. humidified air and 5% CO2. Human Umbilical Vein Endothelial Cells (HUVEC, cat #CC-2519, Lonza) were cultured in EGM (Lonza cat #CC-3124) under the same condition.
# (§2) qPCR after reverse transcription (RT-qPCR) was performed on a 25 μL reaction solution containing a 0.3 μL aliquot of cDNA, 12.5 μL of TaqMan gene expression assay mix, 1.25 μL of probes, and 11 μL RNase-free water. qPCR was carried out on an ABI 7300 sequence detection system using the thermocycler program: 2 min at 50° C., 10 min at 95° C., and 15 s at 95° C. (40 cycles) and 1 min at 60° C. Each experiment was performed in triplicate. VEGF-A (Hs00900055_m1), PDGFB (Hs00266645_m1) and bFGF (Hs00966522_m1) were used as target genes, while GAPDH (Hs02758991_g1) was used as endogenous control. Graphs and data analysis were performed using the Prism software and analyzed using unpaired t test.
# HCT116 cells = assay: Cell viability assay (MTT), HCT116; assay type: cell-based, human; settings: 48 h
# Procedure: as §1
# (§3) Cells were seeded in a 96-well clear bottom plate, and 24 h later cells were treated with various concentrations of the apratyramide or solvent control (DMSO). After 48 h of incubation, cell viability was detected using MTT according to the manufacturer's instructions (Promega, Madison, Wis.). Nonlinear regression analysis was carried out using GraphPad Prism software for IC50 value calculations.
# CCD-18Co cells = assay: Cell viability assay (MTT), CCD-18Co; assay type: cell-based, human; settings: 48 h
# Procedure: as §1, §3
# VEGF-A [2] = assay: VEGF-A transcript level in HaCaT cells (RT-qPCR); assay type: cell-based, human; settings: for VEGF-A mRNA level induction: 30 μM; for increase of VEGF-A transcript levels: 16 h
# Procedure: as §1
# HaCaT cells were seeded in 6-well plates at a density of 2×10^5 per well and incubated further for 24 h in supplement-free medium prior to treatment. […] Total RNA was quantified using NanoDrop 2000. From 2 μg of total RNA, cDNA synthesis was done using SuperScript II Reverse Transcriptase (Invitrogen, Carlsbad, Calif.) and oligo (dT) (Invitrogen).
# as §2
# VEGF-A [3] = assay: Measurement of human VEGF-A secretion from HaCaT cells (AlphaLISA); assay type: cell-based; settings: 24 h
# Procedure: as §1
# HaCaT cells were seeded in a 96-well clear bottom plate. Cells were treated with various concentrations of apratyramide or solvent control (DMSO). After 24 h incubation, culture supernatants were collected for detection of VEGF-A using AlphaLISA kits (PerkinElmer, Waltham, Mass.) following the manufacturer's instruction. Briefly, acceptor bead and anti-VEGF-A antibody were incubated with the supernatants for 60 min, donor beads were added later and incubated for another 30 min. Signal was detected using Envision (PerkinElmer). Levels of VEGF-A (pg/mL) were calculated using a standard curve and then normalized based on cell numbers.
# HaCaT cells [4] = assay: Cell viability assay (MTT), HaCaT; assay type: cell-based, human; settings: 24 h
# Procedure: as §1
# Cells were seeded in a 96-well clear bottom plate, and 24 h later cells were treated with various concentrations of the apratyramide or solvent control (DMSO). […] Nonlinear regression analysis was carried out using GraphPad Prism software for IC50 value calculations.
# PDGFB = PDGFB transcript level in HaCaT cells (RT-qPCR); assay type: cell-based, human; settings: 16 h
# Procedure: (§4) HaCaT cells were seeded in 6-well plates at a density of 2×10^5 per well and incubated further for 24 h in supplement-free medium prior to treatment. RNA was isolated at 3, 12 or 16 h post treatment using the RNeasy mini kit (QIAGEN, Valencia, Calif.). Total RNA was quantified using NanoDrop 2000. From 2 μg of total RNA, cDNA synthesis was done using SuperScript II Reverse Transcriptase (Invitrogen, Carlsbad, Calif.) and oligo (dT) (Invitrogen).
# as §2
# bFGF = bFGF transcript level in HaCaT cells (RT-qPCR); assay type: cell-based, human; settings: 16 h
# Procedure: as §4, §2
# HaCaT cells [5] = assay: Transcriptome profiling of HaCaT cells (Human Transcriptome Array 2.0, IPA); assay type: cell-based
# Procedure: as §4
# RNA was analyzed using a NanoDrop spectrophotometer and Agilent 2100 Bioanalyzer to determine the RNA concentration and quality, respectively. RNA samples were processed using the GeneChip WT PLUS Reagent Kit (Affymetrix, Santa Clara, Calif.) according to the manufacturer's instruction. In brief, 250 ng of RNA were used for cDNA synthesis by reverse transcription, and the cDNA was utilized as a template for the biotin-labeled RNA prepared by in vitro transcription reaction. The labeled RNA was further purified, fragmented, and hybridized with rotation at 45° C. for 16 h to the GeneChip™ Human Transcriptome Array 2.0. The arrays were washed and stained using the GeneChip Hybridization Wash and Stain kit on an Affymetrix Fluidics Station 450. The chips were scanned using a GeneChip 7G Scanner. […]
# ATF4 = ATF4 transcript (microarray) and protein (immunoblot) in HaCaT cells; assay type: cell-based, human
# Procedure: (§5) HaCaT cells were seeded in 6-well clear bottom plate the day before treatment. The next day, cells were treated with 1 or solvent control (DMSO). 24 h later, whole cell lysates were collected using PhosphoSafe buffer (EMD Chemicals, Inc, Gibbstown, N.J.). Protein concentrations were measured with the BCA Protein Assay kit (Thermo Fisher Scientific, Rockford, Ill.). Lysates containing equal amounts of protein were separated by SDS polyacrylamide gel electrophoresis (4-12%), transferred to polyvinylidene difluoride membranes, probed with primary and secondary antibodies, and detected with the SuperSignal West Femto Maximum Sensitivity Substrate (Thermo Fisher Scientific). BIP, IRE1, β-actin and secondary anti-mouse and rabbit antibodies were from Cell Signaling Technology, Inc (Danvers, Mass.). ATF4 and ORP150 antibodies were obtained from Santa Cruz (Calif.).
# (§6) RNA was analyzed using a NanoDrop spectrophotometer and Agilent 2100 Bioanalyzer to determine the RNA concentration and quality, respectively. RNA samples were processed using the GeneChip WT PLUS Reagent Kit (Affymetrix, Santa Clara, Calif.) according to the manufacturer's instruction. In brief, 250 ng of RNA were used for cDNA synthesis by reverse transcription, and the cDNA was utilized as a template for the biotin-labeled RNA prepared by in vitro transcription reaction. […]
# IRE1 = IRE1 transcript (microarray) and protein (immunoblot) in HaCaT cells; assay type: cell-based, human
# Procedure: as §5, §6
# ORP150 = ORP150 transcript (microarray) and protein (immunoblot) in HaCaT cells; assay type: cell-based, human
# Procedure: as §5, §6
# HUVECs = assay: In vitro angiogenesis assay (matrigel, HUVECs, HaCaT conditioned medium); assay type: cell-based, human; settings: HUVECs 14 h, vs CM-DMSO
# Procedure: HaCaT cells were seeded in 12-well plates in complete growth medium the day before treatment. The next day, the medium was replaced with fresh medium followed by the treatment of 1 or solvent control. After 24 h or incubation, the conditioned medium was collected for the in vitro angiogenesis assay.
# HUVECs (Lonza) were used at passage 4 for this assay. In vitro Angiogenesis Assay Kit (Chemicon) was used according to the manufacturer's recommendation. Briefly, an ice-cold mixture of ECMatrix was transferred into a precooled 96-well plate. After the matrix solution had solidified (>1 h incubation at 37° C., 10,000 cells were mixed with the CM or EGM with or without the presence of VEGF-A protein, 100 ng/mL and plated into each well. After incubation at 37° C. for 14 h, images were captured for each well using a Nikon inverted microscope equipped with NIS-Elements software. Branch point counting was used as quantification method. Three random microscope view-fields were counted and the number of branch points was averaged for each well. Branch point for each group was calculated by averaging eight replicates from two independent experiments.
# VEGF-A [6] = assay: VEGF-A mRNA in ablated rabbit corneas, ex vivo organ culture; settings: ablated rabbit corneas ex vivo, 25, 50 or 100 μM, 18 h
# Procedure: The central 6 mm diameter area of corneas of twelve fresh rabbit globes (Pelfreeze) was ablated to a total depth of 155 microns using a Nidek excimer laser in phototherapeutic keratectomy mode. Ablated corneas were then surgically dissected from the rabbit globes using sterile scalpel and forceps, grasping only the scleral rims and not the clear cornea. The corneas were cultured in DMEM/F-12 1:1 (Thermo Fisher) containing 40 mM HEPES, 10% FBS, 0.01% dextran 40 (Tokyo Chemical Industry, Co., Ltd.) and 0.025% chondroitin sulfate (Chem-Impex International, Inc.) in 6-well plates. Twelve corneas were randomly distributed into four groups (three corneas in each group): DMSO, 25 μM, 50 μM or 100 μM apratyramide. […]
# The central scar-like tissue from each cornea was collected using an 8 mm punch biopsy. […] The purified cDNA was then quantified using nanodrop and used to generate a standard curve. Serial 10-fold dilutions of the quantified cDNA amplicon were subjected to RT-qPCR using SYBR Select Master Mix (Applied Biosystems). […] The mass-normalized Ct values for the apratyramide treatment groups and DMSO control group (n=3 biological replicates per group) were analyzed by a one-way ANOVA (α=0.05, Microsoft Excel 2010, Analysis Tool Pack) followed by Tukey's HSD post hoc test manually calculated in Excel 2010 (FIG. 8).
compound,measurement,setting,value
"CC[C@H](C)[C@@H](OC(=O)[C@H](Cc1ccc(OC)cc1)N(C)C)C(=O)N[C@H](C(=O)N(C)[C@@H](Cc1ccc(O)cc1)C(=O)N(C)[C@@H](Cc1ccc(O)cc1)C(=O)OC)C(C)C [Compound 1, Apratyramide]",VEGF-A transcript level,VEGF-A [1],up-regulated
same,VEGF-A transcript levels,VEGF-A [1]; fifty micro-molar,doubled
same,cytotoxicity (antiproliferative effect),HCT116 cells,minimal cytotoxicity
same,effects on cell viability,CCD-18Co cells,negligible effects
same,VEGF-A mRNA level induction,VEGF-A [2]; 4 h,1.7 fold
same,VEGF-A mRNA level induction,VEGF-A [2]; 12 h,greater induction effect
same,increase of VEGF-A transcript levels,VEGF-A [2]; 31.6 μM,5 fold
same,increase of VEGF-A transcript levels,VEGF-A [2]; 50 μM,7 fold
same,increase of VEGF-A secretion,VEGF-A [3]; 31.6 μM,1.3 fold
same,increase of VEGF-A secretion,VEGF-A [3]; 50 μM,1.5 fold
same,cytotoxicity,HaCaT cells [4]; 31.6 μM,without causing cytotoxicity
same,cell viability,HaCaT cells [4]; 50 μM,Around ninety-percent
same,PDGFB transcript level,PDGFB,stimulated
same,bFGF transcript level,bFGF,stimulated
same,VEGF-A in microarray,"HaCaT cells [5]; 30 μM, 12 h",one of the most up-regulated genes
same,microRNAs in microarray,HaCaT cells [5]; 12 h treatment,down-regulation of several microRNAs
same,ATF4 transcript and protein levels,ATF4,up-regulated; also recorded: activated
same,IRE1 transcript and protein levels,IRE1,up-regulated
same,ORP150 transcript and protein levels,ORP150,up-regulated
same,angiogenesis (tube-like structure formation) with conditioned medium,HUVECs; HaCaT culture treated with 30 μM for 24 h,rescued
same,angiogenesis (tube-like structure formation) with conditioned medium,HUVECs; HaCaT culture treated with 50 μM for 24 h,rescued
same,VEGF-A mRNA in the cornea,VEGF-A [6],dose-dependent increase
